In one assay the target is kappa opioid receptor (Homo sapiens, UniProt P41145). Briefly: biochemical. The assay is classed as binding.
Assay [1] deals with T1, adrenergic alpha2B receptor (Homo sapiens, UniProt P18089).
T1 construct: host or cells: transient HEKT cells
T1 sequence (P18089 1-450): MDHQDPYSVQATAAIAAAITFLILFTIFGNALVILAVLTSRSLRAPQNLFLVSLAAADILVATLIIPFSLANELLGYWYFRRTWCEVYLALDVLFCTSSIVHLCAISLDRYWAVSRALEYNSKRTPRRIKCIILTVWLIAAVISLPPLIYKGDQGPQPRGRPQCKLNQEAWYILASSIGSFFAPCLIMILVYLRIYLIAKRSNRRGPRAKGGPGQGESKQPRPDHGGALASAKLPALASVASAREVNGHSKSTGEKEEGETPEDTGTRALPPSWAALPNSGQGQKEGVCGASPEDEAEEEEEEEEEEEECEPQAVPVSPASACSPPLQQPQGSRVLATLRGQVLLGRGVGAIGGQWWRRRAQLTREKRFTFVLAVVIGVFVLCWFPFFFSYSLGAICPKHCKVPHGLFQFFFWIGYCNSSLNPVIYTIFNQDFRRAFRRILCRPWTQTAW
Nature of the assay: biochemical. The assay is classed as binding.

Another assay has as its target T2, serotonin 5HT1A receptor (Homo sapiens, UniProt P08908).
T2 sequence (P08908 1-422): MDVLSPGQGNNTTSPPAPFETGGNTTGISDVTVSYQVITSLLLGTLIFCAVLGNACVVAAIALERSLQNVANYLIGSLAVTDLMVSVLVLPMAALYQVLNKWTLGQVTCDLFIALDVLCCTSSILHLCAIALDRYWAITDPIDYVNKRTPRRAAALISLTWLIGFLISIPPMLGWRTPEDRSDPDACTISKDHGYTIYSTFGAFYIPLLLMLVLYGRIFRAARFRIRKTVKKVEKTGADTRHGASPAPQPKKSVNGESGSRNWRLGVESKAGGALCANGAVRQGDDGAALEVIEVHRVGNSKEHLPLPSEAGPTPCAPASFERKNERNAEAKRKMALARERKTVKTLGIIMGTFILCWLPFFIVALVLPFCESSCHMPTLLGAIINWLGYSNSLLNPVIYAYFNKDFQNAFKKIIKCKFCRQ
Nature of the assay: biochemical. It is filed as binding.

Another assay has as its target delta opioid receptor (Homo sapiens, UniProt P41143). Briefly: biochemical. It is filed as binding.
Assay [2] concerns the target T3, adrenergic alpha2A receptor (Homo sapiens, UniProt P08913).
T3 sequence (P08913 1-465): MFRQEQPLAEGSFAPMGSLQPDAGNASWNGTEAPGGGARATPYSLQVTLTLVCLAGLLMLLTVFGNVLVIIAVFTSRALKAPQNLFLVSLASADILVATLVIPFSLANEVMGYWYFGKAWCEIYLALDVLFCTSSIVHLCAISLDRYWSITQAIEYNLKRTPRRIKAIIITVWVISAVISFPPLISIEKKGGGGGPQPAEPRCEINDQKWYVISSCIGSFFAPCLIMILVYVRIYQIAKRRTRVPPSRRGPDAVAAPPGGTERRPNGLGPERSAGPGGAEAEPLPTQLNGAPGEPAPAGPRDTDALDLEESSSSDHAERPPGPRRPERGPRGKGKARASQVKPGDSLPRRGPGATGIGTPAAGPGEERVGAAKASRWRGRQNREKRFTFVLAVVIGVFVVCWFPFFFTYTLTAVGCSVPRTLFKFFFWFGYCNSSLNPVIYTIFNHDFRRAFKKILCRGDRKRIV
Nature of the assay: biochemical. It is filed as binding.

Assay [3] addresses mu opioid receptor (Homo sapiens, UniProt P35372). Nature of the assay: biochemical. The assay is classed as binding.
The target in the next assay is T4, serotonin 5HT2A receptor (Homo sapiens, UniProt P28223).
T4 construct: host or cells: transient HEKT cells (ATCC CRL-11268)
Nature of the assay: biochemical. The assay is classed as binding.

In assay [4] the target is T5, adrenergic alpha2C receptor (Homo sapiens, UniProt P18825).
T5 sequence (P18825 1-462): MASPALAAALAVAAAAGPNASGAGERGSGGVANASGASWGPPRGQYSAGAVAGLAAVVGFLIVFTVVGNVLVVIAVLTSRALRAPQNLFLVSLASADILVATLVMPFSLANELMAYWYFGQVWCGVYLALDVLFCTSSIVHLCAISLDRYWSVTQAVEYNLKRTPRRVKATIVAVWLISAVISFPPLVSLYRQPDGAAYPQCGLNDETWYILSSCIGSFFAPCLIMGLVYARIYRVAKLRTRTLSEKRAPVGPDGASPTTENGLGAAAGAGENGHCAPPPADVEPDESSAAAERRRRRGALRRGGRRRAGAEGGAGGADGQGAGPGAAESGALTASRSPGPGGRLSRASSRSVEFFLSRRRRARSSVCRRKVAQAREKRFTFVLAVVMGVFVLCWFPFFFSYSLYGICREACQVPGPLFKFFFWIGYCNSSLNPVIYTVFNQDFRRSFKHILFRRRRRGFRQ
Nature of the assay: biochemical. It is filed as binding.

The target of assay [5] is mu opioid receptor. The note with it: cited from earlier work.
For a further assay, the target named is mouse opioid receptor. The note with it: read-out: binding affinity; cited from earlier work.
The subject of assay [6] is rodent mu opioid receptors. The note with it: cited from earlier work.
The test system of assay [7] is human mu opioid receptor. The note with it: cited from earlier work.
Assay [8] has as its target human kappa opioid receptor. The note with it: read-out: binding affinity; cited from earlier work.
The target of assay [9] is human delta opioid receptor. As to conditions: read-out: binding affinity; cited from earlier work.
Assay [10] has as its target rodent delta opioid receptor. As to conditions: read-out: binding affinity; cited from earlier work.
In assay [11] the target is rodent kappa opioid receptor. As to conditions: read-out: binding affinity; cited from earlier work.
Assay [12] addresses human mu opioid receptor. As to conditions: read-out: binding affinity; cited from earlier work.
Assay [13] concerns the target rodent mu opioid receptor. The note with it: read-out: binding affinity; cited from earlier work.

Where two headings read alike, the source gives them in different places.

Data on 12 compounds can be found in publication PMC7053747 (PLoS ONE, 2020).

T4 sequence (P28223 whole entry): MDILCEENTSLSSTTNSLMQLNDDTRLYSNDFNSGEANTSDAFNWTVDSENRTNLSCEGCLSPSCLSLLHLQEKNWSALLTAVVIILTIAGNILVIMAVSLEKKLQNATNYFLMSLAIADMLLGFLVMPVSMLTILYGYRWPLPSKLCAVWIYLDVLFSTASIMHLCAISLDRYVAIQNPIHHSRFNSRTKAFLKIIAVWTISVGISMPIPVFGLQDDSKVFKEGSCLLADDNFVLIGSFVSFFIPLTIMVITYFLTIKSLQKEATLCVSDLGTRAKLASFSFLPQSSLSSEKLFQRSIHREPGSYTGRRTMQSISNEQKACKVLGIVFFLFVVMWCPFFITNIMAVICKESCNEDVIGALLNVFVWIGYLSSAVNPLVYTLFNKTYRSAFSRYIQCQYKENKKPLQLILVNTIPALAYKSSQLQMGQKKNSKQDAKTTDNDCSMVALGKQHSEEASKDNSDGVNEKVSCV
kappa opioid receptor, sequence (P41145 whole entry): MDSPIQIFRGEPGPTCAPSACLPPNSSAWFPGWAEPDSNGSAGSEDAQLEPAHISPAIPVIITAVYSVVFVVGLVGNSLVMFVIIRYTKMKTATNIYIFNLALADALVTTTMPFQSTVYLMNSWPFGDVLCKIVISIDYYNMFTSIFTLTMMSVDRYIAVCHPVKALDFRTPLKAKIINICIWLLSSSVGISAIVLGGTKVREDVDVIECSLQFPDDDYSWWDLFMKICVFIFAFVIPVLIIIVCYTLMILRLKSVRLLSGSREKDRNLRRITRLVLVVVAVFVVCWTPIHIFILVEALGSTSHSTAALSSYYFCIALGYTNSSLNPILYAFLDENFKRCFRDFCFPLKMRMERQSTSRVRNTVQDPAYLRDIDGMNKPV
mu opioid receptor (Homo sapiens, UniProt P35372), sequence (P35372 whole entry): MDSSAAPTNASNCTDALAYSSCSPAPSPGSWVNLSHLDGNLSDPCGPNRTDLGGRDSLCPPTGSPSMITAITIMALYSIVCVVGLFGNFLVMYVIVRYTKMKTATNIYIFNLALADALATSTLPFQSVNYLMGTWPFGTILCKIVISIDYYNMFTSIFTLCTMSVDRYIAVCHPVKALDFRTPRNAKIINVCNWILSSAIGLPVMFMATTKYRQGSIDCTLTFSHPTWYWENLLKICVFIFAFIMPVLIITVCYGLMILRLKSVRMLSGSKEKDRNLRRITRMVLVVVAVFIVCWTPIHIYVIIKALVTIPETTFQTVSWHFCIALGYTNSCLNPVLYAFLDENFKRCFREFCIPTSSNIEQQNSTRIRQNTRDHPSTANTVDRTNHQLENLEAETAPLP
delta opioid receptor, sequence (P41143 whole entry): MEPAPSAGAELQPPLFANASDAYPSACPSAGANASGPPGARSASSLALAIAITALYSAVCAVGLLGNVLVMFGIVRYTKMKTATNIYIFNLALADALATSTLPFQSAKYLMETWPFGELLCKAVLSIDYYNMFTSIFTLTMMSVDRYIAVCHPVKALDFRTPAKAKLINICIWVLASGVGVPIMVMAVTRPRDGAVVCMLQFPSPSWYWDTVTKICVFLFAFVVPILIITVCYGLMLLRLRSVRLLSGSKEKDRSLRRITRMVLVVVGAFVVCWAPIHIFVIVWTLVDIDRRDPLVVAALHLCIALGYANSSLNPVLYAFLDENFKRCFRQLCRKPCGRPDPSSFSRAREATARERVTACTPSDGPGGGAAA

As for `C=C[C@H]1CN2CC[C@]3(C(=O)Nc4ccccc43)[C@@H]2C[C@@H]1/C(=C\OC)C(=O)OC` [Compound 20, Corynoxeine], the Ki on kappa opioid receptor was above 10 µM; in assay [1], 8.4 µM; at serotonin 5HT1A receptor, above 10 µM; at delta opioid receptor, above 10 µM; in [2], above 10 µM; on mu opioid receptor [3], above 10 µM. Further, the Ki (on serotonin 5HT2A receptor; in [4]) was above 10 µM in each case.

As to `CC[C@@H]1CN2CC[C@@]3(O)C(=Nc4cccc(OC)c43)[C@@H]2C[C@@H]1/C(=C\OC)C(=O)OC` [Compound 7, 7-Hydroxymitragynine], the Ki on kappa opioid receptor (read-out: Ki) was 0.32 µM; in assay [1] (read-out: Ki), above 10 µM; at serotonin 5HT1A receptor (read-out: Ki), above 10 µM; on delta opioid receptor (read-out: Ki) it was 0.47 µM; in assay [2] (read-out: Ki), above 10 µM; on serotonin 5HT2A receptor (read-out: Ki) it was above 10 µM. Moreover, the Ki in [4] (read-out: Ki) is above 10 µM.

As for `CCC(=O)O[C@](Cc1ccccc1)(c1ccccc1)[C@H](C)CN(C)C` [propoxyphene], the Ki on mu opioid receptor [5] is 0.12 µM.

Turning to `CC[C@H]1CN2CCc3c([nH]c4cccc(OC)c34)[C@@H]2C[C@@H]1/C(=C\OC)C(=O)OC` [Compound 2, Speciogynine], the Ki was 3.6 µM on kappa opioid receptor (read-out: Ki); 2.6 µM in assay [1] (read-out: Ki); 0.54 µM at serotonin 5HT1A receptor (read-out: Ki); below 10 µM at mouse opioid receptor; above 10 µM on delta opioid receptor (read-out: Ki); 0.36 µM in assay [2] (read-out: Ki). The Ki on serotonin 5HT2A receptor (read-out: Ki) came out at 2.9 µM; in assay [4] (read-out: Ki), 0.68 µM.

Consider Mitragynine [Compound 1], for which the Ki was determined as 1.3 µM at kappa opioid receptor (read-out: Ki); 4.9 µM in assay [1] (read-out: Ki); 5.8 µM on serotonin 5HT1A receptor (read-out: Ki); 6.5 µM on delta opioid receptor (read-out: Ki); 2.3 µM in [2] (read-out: Ki); 7.3 µM at serotonin 5HT2A receptor (read-out: Ki). In addition, the Ki in assay [4] (read-out: Ki) is 3.5 µM. For the same compound, the “functional activity (BRET)” value in [6] is on record as “competitive antagonist”; with human mu opioid receptor [7] it was “partial agonist”.

Turning to `C=C[C@H]1CN2CCc3c([nH]c4cccc(OC)c34)[C@@H]2C[C@@H]1/C(=C\OC)C(=O)OC` [Compound 5, Paynantheine], the Ki in [8] was 2.6 ± 0.4 µM; in assay [9] it was above 10 µM; in [10], 4.3 ± 0.7 µM; in [11] it was 0.89 ± 0.3 µM; at human mu opioid receptor [12] it was 0.41 ± 0.2 µM; in assay [13], 0.67 ± 0.08 µM. The “functional activity (BRET)” value in assay [6] is given as “no agonist or antagonist activity”; in the assay on human mu opioid receptor [7], “antagonist”.

`CC[C@@H]1CN2CC[C@]3(C(=O)Nc4ccccc43)[C@@H]2C[C@@H]1/C(=C\OC)C(=O)OC` [Compound 14, Corynoxine B]: the Ki at kappa opioid receptor is above 10 µM; in assay [1], above 10 µM; on serotonin 5HT1A receptor it was above 10 µM; on delta opioid receptor, 7.6 µM; in assay [2] it was above 10 µM; at mu opioid receptor [3] it was 1.6 µM. Also, the Ki (at serotonin 5HT2A receptor; in assay [4]) was above 10 µM in each case.

`CCOC(=O)C1(c2ccccc2)CCN(CCC(C#N)(c2ccccc2)c2ccccc2)CC1` [diphenoxylate]: at mu opioid receptor [5], the Ki was 0.0124 µM.

On to `COC(=O)C1=CO[C@@H](C)C2CN3CCc4c([nH]c5ccccc45)[C@@H]3C[C@H]12` (some centres unmarked) [Compound 11, Ajmalicine], for which the Ki on kappa opioid receptor is above 10 µM; on serotonin 5HT1A receptor, 0.42 µM; at delta opioid receptor it was above 10 µM; in [2] it was 0.045 µM; at mu opioid receptor [3], 8.96 µM; on serotonin 5HT2A receptor, above 10 µM. The compound further displayed a Ki in assay [4] of 0.065 µM.

`CC[C@H]1CN2CC[C@@]3(C(=O)Nc4ccccc43)[C@@H]2C[C@@H]1/C(=C\OC)C(=O)OC` [Compound 16, Isorhynchophylline]: the Ki at kappa opioid receptor was above 10 µM; in assay [1], above 10 µM; on serotonin 5HT1A receptor it was above 10 µM; at delta opioid receptor it was 6.4 µM; in [2], 4.8 µM; on serotonin 5HT2A receptor, above 10 µM. Moreover, the Ki in assay [4] was above 10 µM.

Consider `C=C[C@H]1CN2CC[C@@]3(C(=O)Nc4ccccc43)[C@@H]2C[C@@H]1/C(=C\OC)C(=O)OC` [Compound 21, Isocorynoxeine], for which the Ki (at kappa opioid receptor; in assay [1]; at serotonin 5HT1A receptor; at delta opioid receptor; in [2]; at mu opioid receptor [3]) was above 10 µM in each case. Further, the Ki (on serotonin 5HT2A receptor; in assay [4]) was above 10 µM in each case.

As to `COC(=O)C1=CO[C@@H](C)[C@@H]2CN3CCc4c([nH]c5ccccc45)[C@@H]3C[C@H]12` [Compound 12, Tetrahydroalstonine], the Ki at kappa opioid receptor is above 10 µM; in assay [1] it was 0.04 µM; on serotonin 5HT1A receptor it was 0.38 µM; at delta opioid receptor, above 10 µM; in [2], 0.018 µM; at mu opioid receptor [3], above 10 µM. In addition, the Ki on serotonin 5HT2A receptor was 2.6 µM; in assay [4], 0.053 µM.
